Tests used:
HUVEC = system: HUVEC; set-up: method as in PMID 22669534; conditions: cited from earlier work
[1] = system: endothelial tube formation; conditions: cited from earlier work
[2] = system: N-cadherin, Snail, Twist, E-cadherin; set-up: method as in PMID 26371759; conditions: cited from earlier work
angiogenesis in vivo = system: angiogenesis in vivo; set-up: method as in PMID 22669534; conditions: chorioallantoic membrane assay and corneal angiogenesis assay; cited from earlier work
EMT process = conditions: through decreasing the mRNA level of E-cadherin; cited from earlier work
MCF-10A cells = assay: Flow cytometry cell cycle phase distribution; assay type: cell-based, human; conditions: treatment alone (IC10 of PSE/Phy, or TGF-β 30 ng/mL)
Experimental: The MCF-10A and BJ-5ta cells were seeded and cultivated for 24 h in a complete medium. One day after seeding, 30 ng/mL of TGF-β was added and cultivated for 7 days (d). TGF-β was added to induce epithelial–mesenchymal transition in tested cell lines. Lichen extract P. furfuracea (L.) Zopf and its metabolite physodic acid were added at time 0 h and then incubated for 24, 48 and 72 h for various analyses, as described in Figure 1.
The MCF-10A cells (1 × 10^4/well) were seeded in Petri dishes and stimulated with […] TGF-β for 7 days. […] After detaching, using Trypsin/EDTA, cells were harvested and pelleted by centrifugation at 1200 rpm for 5 min. Pellet was re-suspended in PBS and divided for a particular analysis. Cells were stained prior to analyses with E-Cadherin Mouse mAb (Alexa Fluor 488 conjugate) or N-cadherin Rabbit mAb (Alexa Fluor 647 conjugate) (Cell Signalling) for 15 min at RT in the dark. For the cell cycle analyses, cells were re-suspended in staining solution (final concentration 0.1% Triton X-100, 0.5 mg/mL ribonuclease A and 0.025 mg/mL propidium iodide (PI)), and incubated in the dark at RT for 30 min. All samples were analysed using a FACS Calibur flow cytometer (Becton Dickinson, San Jose, CA, USA). The IgG isotype control checking was performed for every used antibody.

CC(=O)c1c(O)c(C)c(O)c2c1OC1=CC(=O)C(C(C)=O)C(=O)C12C (stereo not drawn) [(+)- usnic acid]
VEGF-induced HUVEC migration and tube formation (HUVEC): inhibits

CCCCCC(=O)Cc1cc(O)cc(O)c1C(=O)Oc1cc(O)c(C(=O)O)c(CCCCC)c1 [olivetoric acid]
endothelial tube formation [1]: inhibiting

COC(=O)c1c(C)c2c(c(C)c1O)OC(=O)c1c(C)c(Cl)c(O)c(C=O)c1O2 [physciosporin]
changes in E-cadherin levels [2]: not observed
level of EMT-associated proteins N-cadherin, Snail and Twist [2]: decrease

CC(=O)c1c(O)c(C)c(O)c2c1OC1=CC(=O)C(C(C)=O)C(=O)C12C (centres unmarked) [usnic acid]
anti-angiogenic activity by inhibiting endothelial tube formation [1]: strong anti-angiogenic activity
angiogenesis in vivo (angiogenesis in vivo): inhibits
effect on the EMT process (EMT process): inhibitory effect

COC(=O)/C(=C1/OC(=O)C(c2ccccc2)=C1O)c1ccccc1 [vulpinic acid]
anti-angiogenic activity by inhibiting endothelial tube formation [1]: strong anti-angiogenic activity

TGF-β
G1 cell cycle phase distribution (MCF-10A cells; 24 h): 74.55 ± 1.59
G2/M cell cycle phase distribution (MCF-10A cells; 24 h): 13.25 ± 2.49
S cell cycle phase distribution (MCF-10A cells; 24 h): 11.15 ± 0.69
Sub G0 cell cycle phase distribution (MCF-10A cells; 24 h): 1.07 ± 0.22
G1 cell cycle phase distribution (MCF-10A cells; 48 h): 83.05 ± 2.74
G2/M cell cycle phase distribution (MCF-10A cells; 48 h): 8.63 ± 1.69
S cell cycle phase distribution (MCF-10A cells; 48 h): 7.39 ± 0.88
Sub G0 cell cycle phase distribution (MCF-10A cells; 48 h): 0.94 ± 0.16
G1 cell cycle phase distribution (MCF-10A cells; 72 h): 81.35 ± 0.37
G2/M cell cycle phase distribution (MCF-10A cells; 72 h): 10.85 ± 0.45
S cell cycle phase distribution (MCF-10A cells; 72 h): 6.61 ± 0.74
Sub G0 cell cycle phase distribution (MCF-10A cells; 72 h): 1.22 ± 0.07
